Measurements reported in patent US11339161B2, “Triazolo pyridines as modulators of gamma-secretase” (Boehringer Ingelheim International GmbH, priority 2017, dated 2022).
Like-named read-outs stand apart in the source and are kept apart here.

Columns and labels:
[1] = target: FGFR1 (Homo sapiens, UniProt P11362); assay: Z'-LYTE SelectScreen biochemical kinase assay FGFR1
Excerpt: (§1) Thermo Fisher Scientific SelectScreen™ Biochemical Kinase Profiling Service Z′-LYTE™ Screening Protocol and Assay Conditions Assay Theory
(§2) The […] biochemical assay employs a fluorescence-based, coupled-enzyme format and is based on the differential sensitivity of phosphorylated and non-phosphorylated peptides to proteolytic cleavage. The peptide substrate is labeled with two fluorophores—one at each end—that make up a FRET pair. In the primary reaction, the kinase transfers the gamma-phosphate of ATP to a single tyrosine, serine or threonine residue in a synthetic FRET-peptide. In the secondary reaction, a site-specific protease recognizes and cleaves non-phosphorylated FRET-peptides. Phosphorylation of FRET-peptides suppresses cleavage by the Development Reagent. Cleavage disrupts FRET between the donor (i.e., coumarin) and acceptor (i.e., fluorescein) fluorophores on the FRET-peptide, whereas uncleaved, phosphorylated FRET-peptides maintain FRET. A ratiometric method, which calculates the ratio (Emission Ratio=Coumarin emission (445 nm)/Fluorescein emission (520 nm)) of donor emission to acceptor emission after excitation of the donor fluorophore at 400 nm, is used to quantitate reaction progress, as shown in the equation below. A significant benefit of this ratiometric method for quantitating reaction progress is the elimination of well-to-well variations in FRET-peptide concentration and signal intensities. As a result, the assay yields very high Z′-factor values (>0.7) at a low percent phosphorylation. Both cleaved and uncleaved FRET-peptides contribute to the fluorescence signals and therefore to the Emission Ratio. The extent of phosphorylation of the FRET-peptide can be calculated from the Emission Ratio. The Emission Ratio will remain low if the FRET-peptide is phosphorylated (i.e., no kinase inhibition) and will be high if the FRET-peptide is non-phosphorylated (i.e., kinase inhibition).
(§3) The Test Compounds are screened in 1% DMSO (final) in the well. For 10 point titrations, 3-fold serial dilutions are conducted from the starting concentration of the customer's choosing.
(§4) All Peptide/Kinase Mixtures are diluted to a 2× working concentration in the appropriate Kinase Buffer (see section Kinase Specific Assay Conditions for a complete description).
(§5) All ATP Solutions are diluted to a 4× working concentration in Kinase Buffer (50 mM HEPES pH 7.5, 0.01% BRIJ-35, 10 mM MgCl2, 1 mM EGTA). ATP Km apparent is previously determined using a Z″-LYTE assay.
(§6) The Development Reagent is diluted in Development Buffer (see section Kinase-Specific Assay Conditions—Direct and Cascade for a complete description).
(§7) Bar-coded Corning, low volume NBS, black 384-well plate (Corning Cat. #4514) • 1. 100 nL—100× Test Compound in 100% DMSO • 2. 2.4 μL—Kinase buffer • 3. 5 μL—2× Peptide/Kinase Mixture • 4. 2.5 μL—4×ATP Solution • 5. 30—second plate shake • 6. 60—minute Kinase Reaction incubation at room temperature • 7. 5 μL—Development Reagent Solution • 8. 30—second plate shake • 9. 60—minute Development Reaction incubation at room temperature • 10. Read on fluorescence plate reader and analyze the data Z′-LYTE Assay Controls
(§8) SelectScreen Kinase Profiling Service uses XLfit from IDBS. The dose response curve is curve fit to model number 205 (sigmoidal dose-response model).
The 2×FGFR1/Tyr 04 mixture is prepared in 50 mM HEPES pH 7.5, 0.01% BRIJ-35, 10 mM MgCl2, 4 mM MnCl2, 1 mM EGTA, 2 mM DTT. The final 10 μL Kinase Reaction consists of 0.44-2.45 ng FGFR1 and 2 μM Tyr 04 in 50 mM HEPES pH 7.5, 0.01% BRIJ-35, 10 mM MgCl2, 2 mM MnCl2, 1 mM EGTA, 1 mM DTT. After the 1 hour Kinase Reaction incubation, 5 μL of a 1:64 dilution of Development Reagent B is added.

[2] = target: RPS6KB1 (p70S6K) (Homo sapiens, UniProt P23443); assay: Z'-LYTE SelectScreen biochemical kinase assay RPS6KB1 (p70S6K)
Excerpt: as §1, §2, §3, §4, §5, §6, §7, §8
(§9) The 2×RPS6 KB1 (p70S6K)/Ser/Thr 07 mixture is prepared in 50 mM HEPES pH 7.5, 0.01% BRIJ-35, 10 mM MgCl2, 1 mM EGTA. The final 10 μL Kinase Reaction consists of 2.87-17.7 ng RPS6 KB1 (p70S6K) and 2 μM Ser/Thr 07 in 50 mM HEPES pH 7.5, 0.01% BRIJ-35, 10 mM MgCl2, 1 mM EGTA. After the 1 hour Kinase Reaction incubation, 5 μL of a 1:45000 dilution of Development Reagent A is added.

[3] = target: CDK5/p35 (Homo sapiens, UniProt Q00535); assay: Z'-LYTE SelectScreen biochemical kinase assay CDK5/p35
Excerpt: as §1, §2, §3, §4, §5, §6, §7, §8
as §9, with “2×CDK5/p35/Ser/Thr 12” for “2×RPS6 KB1 (p70S6K)/Ser/Thr 07”, “0.14-1.3” for “2.87-17.7”, “CDK5/p35” for “RPS6 KB1 (p70S6K)”, “12” for “07”, “1:4096” for “1:45000”

[4] = 10 μmolar compound concentration, ATP at Km app, read-out: FGFR1 inhibition
[5] = read-out: % Inhibition mean FGFR1
[6] = 10 μmolar compound concentration, ATP at Km app, read-out: RPS6KB1 (p70S6K) inhibition
[7] = read-out: % Inhibition mean RPS6KB1 (p70S6K)
[8] = 10 μmolar compound concentration, ATP at Km app, read-out: CDK5/p35 inhibition
[9] = read-out: % Inhibition mean CDK5/p35

Chain of FGFR1 (P11362 22-822): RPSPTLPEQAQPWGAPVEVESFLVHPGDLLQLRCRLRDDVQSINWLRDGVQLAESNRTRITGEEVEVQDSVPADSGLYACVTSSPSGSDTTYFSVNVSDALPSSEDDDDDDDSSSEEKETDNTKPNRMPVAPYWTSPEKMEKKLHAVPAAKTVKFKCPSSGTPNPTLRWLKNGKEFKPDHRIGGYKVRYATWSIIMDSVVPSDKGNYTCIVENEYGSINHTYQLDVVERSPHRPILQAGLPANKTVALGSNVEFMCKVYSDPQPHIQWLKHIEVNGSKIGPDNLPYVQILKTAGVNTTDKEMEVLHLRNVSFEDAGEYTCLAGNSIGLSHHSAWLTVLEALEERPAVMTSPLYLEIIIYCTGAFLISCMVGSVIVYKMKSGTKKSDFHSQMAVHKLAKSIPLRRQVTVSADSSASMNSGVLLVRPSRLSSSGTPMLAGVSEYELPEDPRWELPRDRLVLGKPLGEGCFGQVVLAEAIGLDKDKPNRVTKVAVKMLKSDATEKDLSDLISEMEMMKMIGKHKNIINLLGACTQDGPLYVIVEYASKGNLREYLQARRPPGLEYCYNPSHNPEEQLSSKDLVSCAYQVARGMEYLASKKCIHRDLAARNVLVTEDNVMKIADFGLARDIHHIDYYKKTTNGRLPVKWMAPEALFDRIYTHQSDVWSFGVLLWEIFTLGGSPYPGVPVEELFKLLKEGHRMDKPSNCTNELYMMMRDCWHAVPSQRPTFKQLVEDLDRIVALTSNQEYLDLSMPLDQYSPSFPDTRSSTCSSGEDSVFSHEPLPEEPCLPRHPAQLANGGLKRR
Chain of RPS6KB1 (p70S6K) (P23443 whole entry): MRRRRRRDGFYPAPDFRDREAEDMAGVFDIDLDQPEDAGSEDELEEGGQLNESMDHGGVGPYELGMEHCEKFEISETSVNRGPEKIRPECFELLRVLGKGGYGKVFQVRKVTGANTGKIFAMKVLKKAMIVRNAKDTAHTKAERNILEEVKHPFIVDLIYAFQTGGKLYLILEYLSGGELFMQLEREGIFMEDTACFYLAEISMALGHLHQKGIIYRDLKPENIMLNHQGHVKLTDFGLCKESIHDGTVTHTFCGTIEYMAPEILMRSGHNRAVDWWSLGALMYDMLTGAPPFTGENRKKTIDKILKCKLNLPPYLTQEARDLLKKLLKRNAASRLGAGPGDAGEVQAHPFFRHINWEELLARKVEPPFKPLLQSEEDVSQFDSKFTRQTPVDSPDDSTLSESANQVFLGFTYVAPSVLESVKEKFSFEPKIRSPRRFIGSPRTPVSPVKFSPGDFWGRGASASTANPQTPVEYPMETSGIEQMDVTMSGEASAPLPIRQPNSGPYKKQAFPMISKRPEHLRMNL
Chain of CDK5/p35 (Q00535 whole entry): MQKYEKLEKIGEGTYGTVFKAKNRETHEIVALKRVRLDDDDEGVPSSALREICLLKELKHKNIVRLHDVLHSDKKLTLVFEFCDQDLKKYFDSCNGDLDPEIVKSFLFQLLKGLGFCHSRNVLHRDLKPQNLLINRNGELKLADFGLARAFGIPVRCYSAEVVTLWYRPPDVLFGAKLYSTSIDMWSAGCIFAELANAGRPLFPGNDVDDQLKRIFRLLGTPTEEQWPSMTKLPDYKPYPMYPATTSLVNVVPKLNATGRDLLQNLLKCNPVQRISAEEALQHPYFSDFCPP
Chain of CDK5/p35 (Q15078 whole entry partner): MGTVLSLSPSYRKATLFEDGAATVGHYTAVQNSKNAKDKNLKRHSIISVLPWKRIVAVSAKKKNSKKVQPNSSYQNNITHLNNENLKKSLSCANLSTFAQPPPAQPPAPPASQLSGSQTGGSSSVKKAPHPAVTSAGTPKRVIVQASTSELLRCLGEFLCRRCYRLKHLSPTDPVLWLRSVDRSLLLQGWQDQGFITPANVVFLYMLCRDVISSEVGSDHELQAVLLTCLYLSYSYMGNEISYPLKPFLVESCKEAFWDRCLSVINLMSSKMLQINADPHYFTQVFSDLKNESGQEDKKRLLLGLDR

inhibition at 10 µM [1, 4] [%] | inhibition at 10 µM [1, 5] [%] | inhibition at 10 µM [2, 6] [%] | inhibition at 10 µM [2, 7] [%] | inhibition at 10 µM [3, 8] [%] | inhibition at 10 µM [3, 9] [%] | SMILES
< 40 | 23 | < 40 | 17 | 40 to 80 | 44 | CCn1ncc2c1CCC(Nc1nc3c(-c4cnccc4OC)cccn3n1)C2 (stereo not drawn) [Example 68, (1-Ethyl-4,5,6,7-tetrahydro-1H-indazol-5-yl)-[8-(4-methoxy-pyridin-3-yl)-[1,2,4]triazolo[1,5-a]pyridine-2-yl]-amine]
< 40 | 13 | < 40 | 22 | < 40 | 10 | CCn1ncc2c1CC[C@H](Nc1nc3c(-c4ccc(F)c(Cl)c4)cccn3n1)C2 [Example S-61, (S)-[8-(3-Chloro-4-fluoro-phenyl)-[1,2,4]triazolo[1,5-a]pyridine-2-yl]-(1-ethyl-4,5,6,7-tetrahydro-1H-indazol-5-yl)-amine]
< 40 | 15 | < 40 | 3 | < 40 | 36 | CCCn1ncc2c1CCC(Nc1nc3c(-c4ccc(F)cc4C)cccn3n1)C2 (stereo not drawn) [Example 43, [8-(4-fluoro-2-methyl-phenyl)-[1,2,4]triazolo[1,5-a]pyridine-2-yl]-(1-propyl-4,5,6,7-tetrahydro-1H-indazol-5-yl)-amine]
< 40 | 22 | < 40 | 6 | < 40 | 28 | CCn1ncc2c1CCC(Nc1nc3c(-c4cccc(Cl)c4)cccn3n1)C2 (stereo not drawn) [Example 59, [8-(3-Chloro-phenyl)-[1,2,4]triazolo[1,5-a]pyridine-2-yl]-(1-ethyl-4,5,6,7-tetrahydro-1H-indazol-5-yl)-amine]
< 40 | 20 | < 40 | 12 | < 40 | 25 | Cc1cc(F)ccc1-c1cccn2nc(NC3CCc4c(cnn4C(C)C)C3)nc12 (stereo not drawn) [Example 44, [8-(4-fluoro-2-methyl-phenyl)-[1,2,4]triazolo[1,5-a]pyridine-2-yl]-(1-isopropyl-4,5,6,7-tetrahydro-1H-indazol-5-yl)-amine]
< 40 | 32 | < 40 | 24 | 40 to 80 | 56 | CCn1ncc2c1CCC(Nc1nc3c(-c4cncc(Cl)c4)cccn3n1)C2 (stereo not drawn) [Example 73, [8-(5-Chloro-pyridin-3-yl)-[1,2,4]triazolo[1,5-a]pyridine-2-yl]-(1-ethyl-4,5,6,7-tetrahydro-1H-indazol-5-yl)-amine]
< 40 | 18 | < 40 | -3 | 40 to 80 | 58 | CCn1ncc2c1CCC(Nc1nc3c(-c4cncc(OC)c4)cccn3n1)C2 (stereo not drawn) [Example 70, (1-Ethyl-4,5,6,7-tetrahydro-1H-indazol-5-yl)-[8-(5-methoxy-pyridin-3-yl)-[1,2,4]triazolo[1,5-a]pyridine-2-yl]-amine]
< 40 | 15 | < 40 | 2 | 40 to 80 | 44 | Cc1cc(F)ccc1-c1cccn2nc(NC3CCc4c(cnn4C)C3)nc12 (stereo not drawn) [Example 10, [8-(4-fluoro-2-methyl-phenyl)-[1,2,4]triazolo[1,5-a]pyridine-2-yl]-(1-methyl-4,5,6,7-tetrahydro-1H-indazol-5-yl)-amine]
< 40 | 9 | < 40 | 7 | < 40 | 8 | Cc1cc(F)ccc1-c1cccn2nc(NC3CCc4c(cnn4CC(C)C)C3)nc12 (stereo not drawn) [Example 45, [8-(4-fluoro-2-methyl-phenyl)-[1,2,4]triazolo[1,5-a]pyridine-2-yl]-(1-isobutyl-4,5,6,7-tetrahydro-1H-indazol-5-yl)-amine]
< 40 | -3 | < 40 | 1 | < 40 | 18 | CCc1nn(C)c2c1CCC(Nc1nc3c(-c4ccc(F)cc4C)cccn3n1)C2 (stereo not drawn) [Example 54, (3-Ethyl-1-methyl-4,5,6,7-tetrahydro-1H-indazol-6-yl)-[8-(4-fluoro-2-methyl-phenyl)-[1,2,4]triazolo[1,5-a]pyridine-2-yl]-amine]
< 40 | 15 | < 40 | 3 | < 40 | 25 | CCn1ncc2c1CC[C@@H](Nc1nc3c(-c4ccc(F)c(Cl)c4)cccn3n1)C2 [Example R-61, (R)-[8-(3-Chloro-4-fluoro-phenyl)-[1,2,4]triazolo[1,5-a]pyridine-2-yl]-(1-ethyl-4,5,6,7-tetrahydro-1H-indazol-5-yl)-amine]
< 40 | 16 | < 40 | 6 | < 40 | 39 | CCn1ncc2c1CCC(Nc1nc3c(-c4ccc(F)cc4C)cccn3n1)C2 (stereo not drawn) [Example 42, (1-Ethyl-4,5,6,7-tetrahydro-1H-indazol-5-yl)-[8-(4-fluoro-2-methyl-phenyl)-[1,2,4]triazolo[1,5-a]pyridine-2-yl]-amine]
< 40 | 21 | < 40 | 23 | < 40 | 35 | CCn1ncc2c1CCC(Nc1nc3c(-c4ccc(C)nc4)cccn3n1)C2 (stereo not drawn) [Example 67, (1-Ethyl-4,5,6,7-tetrahydro-1H-indazol-5-yl)-[8-(6-methyl-pyridin-3-yl)-[1,2,4]triazolo[1,5-a]pyridine-2-yl]-amine]
< 40 | 5 | < 40 | 1 | < 40 | 23 | CCn1nnc2c1CCC(Nc1nc3c(-c4ccc(F)cc4C)cccn3n1)C2 (stereo not drawn) [Example 51, (1-Ethyl-4,5,6,7-tetrahydro-1H-benzotriazol-5-yl)-[8-(4-fluoro-2-methyl-phenyl)-[1,2,4]triazolo[1,5-a]pyridine-2-yl]-amine]
